Earlier results, collected in patent US8148337B2, “Vaginal compositions for treating pelvic tissue infections and traumas” (priority 2003, dated 2012).

Key:
chlamydial infection = details: orally as a single dose
[1] = administered rectally

Question: Which results are given for `CC[C@H]1OC(=O)[C@H](C)[C@@H](O[C@H]2C[C@@](C)(OC)[C@@H](O)[C@H](C)O2)[C@H](C)[C@@H](O[C@@H]2O[C@H](C)C[C@H](N(C)C)[C@H]2O)[C@](C)(O)C[C@@H](C)CN(C)[C@H](C)[C@@H](O)[C@]1(C)O` [azithromycin]?
Answer: women who experience side effects (chlamydial infection): 25%; bioavailability [1]: highly variable and low
